Molecules are shown by their SMILES.

The term AUC(0-t) denotes exposure summed from dosing to a finite time, without extrapolation to infinity. High values mean high exposure, low ones low exposure. For orientation: Cmax means the maximum level reached in the sampled fluid or tissue. As a reminder, the clearance is a measure of how efficiently the substance is removed, as volume per time. The low end stands for inefficient removal, the high end for efficient removal.

For one data set, the system named is 100 kinase targets. Nature of the data set: Kinase selectivity test, whole panel (ThermoFisher). The format is biochemical. The protocol:
Test Example 11: Kinase Selectivity Test
1. Experimental Purpose: Tests for selectivity of the compounds of the present disclosure for a plurality of kinases were carried out to assess the safety risk of the compounds of the present disclosure.
2. Test institution: ThermoFisher USA
3. Testing methods: LanthaScreen binding, Z′-LYTE, Adapta
4. Test targets: 100 targets in total

A short description of data set [1]: Pharmacokinetic (PK) studies in SD rat. The format is in vivo. The protocol:
Test Example 6: Pharmacokinetic (PK) Studies in SD Rat
The compound of Example 12 and Control Compound 2 were administered to male SD rats by intravenous injection (IV) and gavage (PO) respectively to estimate the pharmacokinetic properties. Dosing amounts for IV and PO routes were 1 mg/kg and 5 mg/kg, respectively. The solvent for IV route was 5% DMSO+5% Solutol (polyoxyl 15-hydroxystearate)+90% Saline (physiological saline), and the solvent for PO route was 0.5% MC (sodium methylcellulose). Blood was collected at various time points after IV and PO administration. The blood was anticoagulated using EDTA.K2, and centrifuged to obtain plasma samples. The plasma samples were preserved at −80° C.
The plasma samples were subjected to protein precipitation and then to the LC-MS/MS analysis. WinNonlin 6.3 software was used to calculate the pharmacokinetic parameters by non-compartmental model, and the results were listed in Table 6 below.

[2] abbreviates: rat, in vivo, male SD rats, IV, 1 mg/kg, plasma.
The mark [3] stands for this setting: rat, in vivo, male SD rats, PO, 5 mg/kg, plasma.

On to `C[C@@H]1OCC2(CCN(c3cnc(Sc4ccnc(N)c4Cl)c(N)n3)CC2)[C@@H]1N` [TNO-155, reference compound], for which the “inhibitory effect on the remaining 86 targets” value in the data set on 100 kinase targets (86 of the 100 kinase targets) is reported as “weak inhibitory effect”. The “inhibitory effect on the above 14 kinase targets” value with 100 kinase targets (the 14 kinases of the table) was “strong inhibitory effect”.

For `C[C@@H]1OCC2(CCN(c3ncc(Sc4ccnc(N5CC(C(C)(C)O)C5)c4Cl)nc3CO)CC2)[C@@H]1N` [Example 12, 2-(1-(4-(5-((3S,4S)-4-amino-3-methyl-2-oxa-8-azaspiro[4.5]decan-8-yl)-6-(hydroxymethyl)pyrazin-2-ylthio)-3-chloropyridin-2-yl)azetidin-3-yl)propan-2-ol], the “inhibitory effect on all of the 100 kinase targets” value in the data set on 100 kinase targets (all 100 kinase targets) was “weak inhibitory effect”. In addition, the “pharmacokinetic properties (in words)” value in data set [1] (SD rat, 1 mg/kg by injection and 5 mg/kg by mouth) was “excellent pharmacokinetic properties”. In data set [1] (setting [2]), this compound showed an AUC(0-t) of 1690 ng·h/mL, a Cmax of 373 ng/mL and a clearance of 9.8 mL/min/kg. In data set [1] (setting [3]), this compound came in with an AUC(0-t) of 9680 ng·h/mL and a Cmax of 1110 ng/mL.

For the origin of these results see patent US20230212180A1, “SUBSTITUTED PYRAZINE COMPOUND, PHARMACEUTICAL COMPOSITION COMPRISING SAME, AND USE THEREOF” (Sichuan Kelun-Biotech Biopharmaceutical Co., Ltd., priority 2020, published 2023).
